ChEMBL document CHEMBL1201862, “PubChem BioAssay data set” (2004)
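1) Cells in 96-well plates. 2) Compound, 48 h, 5 concentrations. 3) Linear interpolation between surrounding doses. 4) Unreached endpoint = highest concentration. Abbreviation: GI50, concentration required for 50% inhibition of growth.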 The source made the active and inactive calls. Rule as the data show it: active = GI50 up to about 1.1 µM and inactive = higher.

Tests used:
Assay in all cases: NCI anticancer screen, dose series, 48 h
MCF7 = system: MCF7
UACC-257 = system: UACC-257
NCI-H522 = system: NCI-H522
A549 = system: A549
HOP-92 = system: HOP-92
MDA-N = system: MDA-N
HCT-116 = system: HCT-116
Malme-3M = system: Malme-3M
SF-268 = system: SF-268
M14 = system: M14
UO-31 = system: UO-31
HOP-62 = system: HOP-62
BT-549 = system: BT-549
OVCAR-4 = system: OVCAR-4
SK-MEL-2 = system: SK-MEL-2
SNB-75 = system: SNB-75
OVCAR-8 = system: OVCAR-8
PC-3 = system: PC-3
SK-OV-3 = system: SK-OV-3
U-251 = system: U-251
TK-10 = system: TK-10
NCI/ADR-RES = system: NCI/ADR-RES
HCC 2998 = system: HCC 2998
DU-145 = system: DU-145
K562 = system: K562
ACHN = system: ACHN
NCI-H226 = system: NCI-H226
T47D = system: T47D
COLO 205 = system: COLO 205
HCT-15 = system: HCT-15
OVCAR-3 = system: OVCAR-3
SK-MEL-28 = system: SK-MEL-28
SW-620 = system: SW-620
MDA-MB-435 = system: MDA-MB-435
SF-295 = system: SF-295
RPMI-8226 = system: RPMI-8226
KM12 = system: KM12
NCI-H460 = system: NCI-H460
SF-539 = system: SF-539
Hs-578T = system: Hs-578T
SR = system: SR
A498 = system: A498
OVCAR-5 = system: OVCAR-5
SNB-19 = system: SNB-19
CAKI-1 = system: CAKI-1
MDA-MB-231 = system: MDA-MB-231
SN12C = system: SN12C
HL-60 = system: HL-60
LOX IMVI = system: LOX IMVI
HT-29 = system: HT-29
UACC-62 = system: UACC-62
NCI-H23 = system: NCI-H23
MOLT-4 = system: MOLT-4
786-0 = system: 786-0
RXF 393 = system: RXF 393
SK-MEL-5 = system: SK-MEL-5
IGROV-1 = system: IGROV-1
EKVX = system: EKVX
CCRF-CEM = system: CCRF-CEM

Q: For `C/C(=N\NC(=[Se])N1CCN(c2ccccn2)CC1)c1ccccn1`, which GI50 (MCF7) is on record?
A: 0.01 µM (active)

Q: And the GI50 (UACC-257)?
A: 0.01 µM (active)

Q: And the GI50 (NCI-H522)?
A: 0.125 µM (active)

Q: What about the GI50 (A549) of the same compound?
A: 3.72 µM (inactive)

Q: What about the GI50 (HOP-92) of the same compound?
A: 0.508 µM (active)

Q: What about the GI50 (MDA-N) of the same compound?
A: 2.99 µM (inactive)

Q: And the GI50 (HCT-116)?
A: 0.01 µM (active)

Q: And the GI50 (Malme-3M)?
A: 0.297 µM (active)

Q: And the GI50 (SF-268)?
A: 3.21 µM (inactive)

Q: And the GI50 (M14)?
A: 0.102 µM (active)

Q: What about the GI50 (UO-31) of the same compound?
A: 4.02 µM (inactive)

Q: And the GI50 (HOP-62)?
A: 0.0728 µM (active)

Q: And the GI50 (BT-549)?
A: 4.15 µM (inactive)

Q: What about the GI50 (OVCAR-4) of the same compound?
A: 0.0933 µM (active)

Q: What about the GI50 (SK-MEL-2) of the same compound?
A: 0.238 µM (active)

Q: And the GI50 (SNB-75)?
A: 4.7 µM (inactive)

Q: What about the GI50 (OVCAR-8) of the same compound?
A: 0.01 µM (active)

Q: And the GI50 (PC-3)?
A: 0.01 µM (active)

Q: And the GI50 (SK-OV-3)?
A: 2.75 µM (inactive)

Q: And the GI50 (U-251)?
A: 0.00925 µM (active)

Q: And the GI50 (TK-10)?
A: 7.38 µM (inactive)

Q: What about the GI50 (NCI/ADR-RES) of the same compound?
A: 0.0023 µM (active)

Q: And the GI50 (HCC 2998)?
A: 11.1 µM (inactive)

Q: What about the GI50 (DU-145) of the same compound?
A: 5.14 µM (inactive)

Q: And the GI50 (K562)?
A: 0.0448 µM (active)

Q: What about the GI50 (ACHN) of the same compound?
A: 2.37 µM (inactive)

Q: And the GI50 (NCI-H226)?
A: 0.912 µM (active)

Q: What about the GI50 (T47D) of the same compound?
A: 0.01 µM (active)

Q: What about the GI50 (COLO 205) of the same compound?
A: 0.01 µM (active)

Q: What about the GI50 (HCT-15) of the same compound?
A: 0.01 µM

Q: And the GI50 (OVCAR-3)?
A: 0.01 µM (active)

Q: And the GI50 (SK-MEL-28)?
A: 10 µM (inactive)

Q: What about the GI50 (SW-620) of the same compound?
A: 0.01 µM (active)

Q: What about the GI50 (MDA-MB-435) of the same compound?
A: 2.06 µM (inactive)

Q: And the GI50 (SF-295)?
A: 2.42 µM (inactive)

Q: What about the GI50 (RPMI-8226) of the same compound?
A: 0.036 µM (active)

Q: And the GI50 (KM12)?
A: 0.598 µM (active)

Q: And the GI50 (NCI-H460)?
A: 0.0269 µM (active)

Q: And the GI50 (SF-539)?
A: 2.51 µM (inactive)

Q: What about the GI50 (Hs-578T) of the same compound?
A: 0.188 µM (active)

Q: What about the GI50 (SR) of the same compound?
A: 0.00622 µM (active)

Q: And the GI50 (A498)?
A: 4.51 µM (inactive)

Q: What about the GI50 (OVCAR-5) of the same compound?
A: 5.97 µM (inactive)

Q: What about the GI50 (SNB-19) of the same compound?
A: 1.14 µM (inactive)

Q: What about the GI50 (CAKI-1) of the same compound?
A: 2.65 µM (inactive)

Q: And the GI50 (MDA-MB-231)?
A: 0.01 µM (active)

Q: What about the GI50 (SN12C) of the same compound?
A: 0.222 µM (active)

Q: And the GI50 (HL-60)?
A: 0.0432 µM (active)

Q: What about the GI50 (LOX IMVI) of the same compound?
A: 0.0268 µM (active)

Q: And the GI50 (HT-29)?
A: 0.01 µM (active)

Q: And the GI50 (UACC-62)?
A: 1.41 µM (inactive)

Q: And the GI50 (NCI-H23)?
A: 3.06 µM (inactive)

Q: And the GI50 (MOLT-4)?
A: 2.58 µM (inactive)

Q: What about the GI50 (786-0) of the same compound?
A: 0.243 µM (active)

Q: And the GI50 (RXF 393)?
A: 0.0352 µM (active)

Q: And the GI50 (SK-MEL-5)?
A: 0.0475 µM (active)

Q: And the GI50 (IGROV-1)?
A: 0.01 µM (active)

Q: `O=c1oc2ccccc2c(-c2ccc(O)cc2)c1Oc1ccc(Cl)cc1` was tested. Which GI50 (MCF7) did it give?
A: 4.88 µM (inactive)

Q: And the GI50 (UACC-257)?
A: 28.2 µM (inactive)

Q: What about the GI50 (NCI-H522) of the same compound?
A: 16.9 µM (inactive)

Q: What about the GI50 (A549) of the same compound?
A: 19.3 µM (inactive)

Q: What about the GI50 (HOP-92) of the same compound?
A: 19.8 µM (inactive)

Q: What about the GI50 (MDA-N) of the same compound?
A: 19.5 µM (inactive)

Q: And the GI50 (HCT-116)?
A: 15.8 µM (inactive)

Q: What about the GI50 (Malme-3M) of the same compound?
A: 18.2 µM (inactive)

Q: What about the GI50 (SF-268) of the same compound?
A: 23.6 µM (inactive)

Q: And the GI50 (M14)?
A: 17.1 µM (inactive)

Q: And the GI50 (UO-31)?
A: 18.1 µM (inactive)

Q: What about the GI50 (BT-549) of the same compound?
A: 23.2 µM (inactive)

Q: And the GI50 (OVCAR-4)?
A: 38.4 µM (inactive)

Q: And the GI50 (SK-MEL-2)?
A: 17.9 µM (inactive)

Q: What about the GI50 (EKVX) of the same compound?
A: 16.8 µM (inactive)

Q: And the GI50 (SNB-75)?
A: 18.7 µM (inactive)

Q: And the GI50 (OVCAR-8)?
A: 25.8 µM (inactive)

Q: And the GI50 (PC-3)?
A: 25.8 µM (inactive)

Q: And the GI50 (U-251)?
A: 22.3 µM (inactive)

Q: What about the GI50 (TK-10) of the same compound?
A: 20.7 µM (inactive)

Q: What about the GI50 (NCI/ADR-RES) of the same compound?
A: 24.5 µM (inactive)

Q: What about the GI50 (HCC 2998) of the same compound?
A: 16.9 µM (inactive)

Q: What about the GI50 (DU-145) of the same compound?
A: 42.7 µM (inactive)

Q: And the GI50 (K562)?
A: 21 µM (inactive)

Q: What about the GI50 (ACHN) of the same compound?
A: 25.8 µM (inactive)

Q: And the GI50 (NCI-H226)?
A: 20.5 µM (inactive)

Q: What about the GI50 (T47D) of the same compound?
A: 29.6 µM (inactive)

Q: And the GI50 (COLO 205)?
A: 23.2 µM (inactive)

Q: What about the GI50 (HCT-15) of the same compound?
A: 30.1 µM

Q: What about the GI50 (CCRF-CEM) of the same compound?
A: 21.4 µM (inactive)

Q: What about the GI50 (OVCAR-3) of the same compound?
A: 14.9 µM (inactive)

Q: And the GI50 (SK-MEL-28)?
A: 15.3 µM (inactive)

Q: What about the GI50 (SW-620) of the same compound?
A: 30.5 µM (inactive)

Q: What about the GI50 (MDA-MB-435) of the same compound?
A: 30 µM (inactive)

Q: What about the GI50 (SF-295) of the same compound?
A: 17 µM (inactive)

Q: And the GI50 (RPMI-8226)?
A: 20.7 µM (inactive)

Q: And the GI50 (KM12)?
A: 26.5 µM (inactive)

Q: What about the GI50 (NCI-H460) of the same compound?
A: 20.4 µM (inactive)

Q: And the GI50 (SF-539)?
A: 30.4 µM (inactive)

Q: And the GI50 (Hs-578T)?
A: 16.1 µM (inactive)

Q: What about the GI50 (SR) of the same compound?
A: 18.2 µM (inactive)

Q: What about the GI50 (A498) of the same compound?
A: 26.6 µM (inactive)

Q: And the GI50 (OVCAR-5)?
A: 31.8 µM (inactive)

Q: What about the GI50 (SNB-19) of the same compound?
A: 22.4 µM (inactive)

Q: What about the GI50 (CAKI-1) of the same compound?
A: 28.8 µM (inactive)

Q: And the GI50 (MDA-MB-231)?
A: 22.4 µM (inactive)

Q: And the GI50 (SN12C)?
A: 24 µM (inactive)

Q: What about the GI50 (LOX IMVI) of the same compound?
A: 24.7 µM (inactive)

Q: What about the GI50 (HT-29) of the same compound?
A: 20.1 µM (inactive)

Q: And the GI50 (UACC-62)?
A: 19.9 µM (inactive)

Q: What about the GI50 (NCI-H23) of the same compound?
A: 20.7 µM (inactive)

Q: And the GI50 (786-0)?
A: 26.9 µM (inactive)

Q: And the GI50 (RXF 393)?
A: 19.4 µM (inactive)

Q: What about the GI50 (SK-MEL-5) of the same compound?
A: 18.3 µM (inactive)

Q: What about the GI50 (IGROV-1) of the same compound?
A: 20.3 µM (inactive)
